The values below come from paper doi:10.1101/2023.03.24.534094v2 (biorxiv, 2023).

Targets include NDR2 (Homo sapiens, UniProt Q9Y2H1); BIKE (Homo sapiens, UniProt Q9NSY1); JNK1 (Homo sapiens, UniProt P45983); BRD4 (Homo sapiens, UniProt O60885); LOK (Homo sapiens, UniProt O94804); MRCKa (Homo sapiens, UniProt Q5VT25); CLK3 (Homo sapiens, UniProt P49761).
Holding throughout (assay): biochemical
In another assay the target is T1, NEK1 (Homo sapiens, UniProt Q96PY6).
T1 sequence (Q96PY6 1-1258): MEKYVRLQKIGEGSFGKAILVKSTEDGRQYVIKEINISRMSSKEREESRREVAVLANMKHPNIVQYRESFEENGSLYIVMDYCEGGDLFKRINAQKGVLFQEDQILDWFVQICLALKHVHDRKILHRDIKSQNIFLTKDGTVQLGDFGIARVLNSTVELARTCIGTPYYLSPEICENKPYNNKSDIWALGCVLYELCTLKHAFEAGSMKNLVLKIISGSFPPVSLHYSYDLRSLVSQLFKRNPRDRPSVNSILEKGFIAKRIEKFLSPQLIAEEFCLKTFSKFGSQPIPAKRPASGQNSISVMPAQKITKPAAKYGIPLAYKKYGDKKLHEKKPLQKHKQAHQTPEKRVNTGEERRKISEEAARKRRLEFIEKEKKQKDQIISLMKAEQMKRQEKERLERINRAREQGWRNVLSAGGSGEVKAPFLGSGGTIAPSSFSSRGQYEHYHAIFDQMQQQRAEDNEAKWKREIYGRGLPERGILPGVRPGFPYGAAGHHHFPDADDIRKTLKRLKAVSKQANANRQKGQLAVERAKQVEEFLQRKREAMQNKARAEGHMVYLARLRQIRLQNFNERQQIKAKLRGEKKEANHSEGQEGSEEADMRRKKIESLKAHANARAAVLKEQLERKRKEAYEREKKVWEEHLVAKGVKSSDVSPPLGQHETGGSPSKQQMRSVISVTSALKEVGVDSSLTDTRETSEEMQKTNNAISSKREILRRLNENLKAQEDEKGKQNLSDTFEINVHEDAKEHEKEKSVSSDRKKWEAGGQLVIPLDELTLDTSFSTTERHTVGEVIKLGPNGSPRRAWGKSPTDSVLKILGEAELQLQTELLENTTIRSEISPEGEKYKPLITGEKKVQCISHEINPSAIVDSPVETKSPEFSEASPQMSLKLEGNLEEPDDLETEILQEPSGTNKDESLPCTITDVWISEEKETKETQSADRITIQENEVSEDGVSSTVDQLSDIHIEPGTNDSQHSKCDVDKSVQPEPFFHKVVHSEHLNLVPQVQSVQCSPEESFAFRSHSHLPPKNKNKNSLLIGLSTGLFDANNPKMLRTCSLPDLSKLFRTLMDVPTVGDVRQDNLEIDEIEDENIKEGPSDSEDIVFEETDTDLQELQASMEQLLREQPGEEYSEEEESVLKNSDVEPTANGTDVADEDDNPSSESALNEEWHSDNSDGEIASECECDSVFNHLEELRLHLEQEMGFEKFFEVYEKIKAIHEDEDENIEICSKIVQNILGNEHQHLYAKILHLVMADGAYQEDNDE

The next assay deals with T2, MYT1 (Homo sapiens, UniProt Q99640).
T2 sequence (Q99640 1-499): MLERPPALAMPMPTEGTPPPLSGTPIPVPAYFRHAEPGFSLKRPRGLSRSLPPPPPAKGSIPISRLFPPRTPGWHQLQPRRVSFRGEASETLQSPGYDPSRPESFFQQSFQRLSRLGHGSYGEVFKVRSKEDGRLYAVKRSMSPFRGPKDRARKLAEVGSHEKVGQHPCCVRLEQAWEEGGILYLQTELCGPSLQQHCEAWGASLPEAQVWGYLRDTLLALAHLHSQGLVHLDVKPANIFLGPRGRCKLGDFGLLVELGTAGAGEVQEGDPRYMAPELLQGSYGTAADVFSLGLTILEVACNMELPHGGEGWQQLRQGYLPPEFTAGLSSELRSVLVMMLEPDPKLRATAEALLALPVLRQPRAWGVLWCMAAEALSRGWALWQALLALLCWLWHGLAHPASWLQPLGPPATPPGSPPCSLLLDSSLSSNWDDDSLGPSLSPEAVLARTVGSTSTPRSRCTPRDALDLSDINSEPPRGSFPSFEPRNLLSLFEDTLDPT

In another assay the target is T3, ULK3 (Homo sapiens, UniProt Q6PHR2).
T3 sequence (Q6PHR2 1-472): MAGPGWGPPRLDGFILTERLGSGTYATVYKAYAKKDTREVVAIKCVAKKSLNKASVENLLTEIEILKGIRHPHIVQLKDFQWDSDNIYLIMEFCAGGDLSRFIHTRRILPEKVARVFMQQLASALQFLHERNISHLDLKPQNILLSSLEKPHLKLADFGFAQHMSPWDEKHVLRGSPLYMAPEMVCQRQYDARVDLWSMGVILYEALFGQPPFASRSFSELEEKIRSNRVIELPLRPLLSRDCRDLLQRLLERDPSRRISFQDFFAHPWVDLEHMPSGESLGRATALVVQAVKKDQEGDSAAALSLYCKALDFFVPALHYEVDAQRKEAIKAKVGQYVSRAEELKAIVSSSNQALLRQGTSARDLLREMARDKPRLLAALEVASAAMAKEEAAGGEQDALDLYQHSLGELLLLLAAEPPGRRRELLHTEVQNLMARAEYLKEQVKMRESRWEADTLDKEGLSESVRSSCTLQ

Read-outs that look alike come from different tables or passages of the source.

Sequence of CLK3 (P49761 whole entry): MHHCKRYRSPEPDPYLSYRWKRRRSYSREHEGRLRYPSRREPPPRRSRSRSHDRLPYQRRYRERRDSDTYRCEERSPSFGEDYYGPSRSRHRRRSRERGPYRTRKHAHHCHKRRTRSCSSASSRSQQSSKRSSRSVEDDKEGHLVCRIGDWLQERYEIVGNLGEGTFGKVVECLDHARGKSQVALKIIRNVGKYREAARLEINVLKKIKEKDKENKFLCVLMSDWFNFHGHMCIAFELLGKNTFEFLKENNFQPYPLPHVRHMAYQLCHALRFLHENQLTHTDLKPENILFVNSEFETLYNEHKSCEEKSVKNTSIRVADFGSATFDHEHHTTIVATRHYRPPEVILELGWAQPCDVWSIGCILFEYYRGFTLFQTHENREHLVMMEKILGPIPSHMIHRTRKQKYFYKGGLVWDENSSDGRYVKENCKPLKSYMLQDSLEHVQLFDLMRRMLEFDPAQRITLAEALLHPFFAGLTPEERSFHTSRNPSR
Sequence of BIKE (Q9NSY1 whole entry): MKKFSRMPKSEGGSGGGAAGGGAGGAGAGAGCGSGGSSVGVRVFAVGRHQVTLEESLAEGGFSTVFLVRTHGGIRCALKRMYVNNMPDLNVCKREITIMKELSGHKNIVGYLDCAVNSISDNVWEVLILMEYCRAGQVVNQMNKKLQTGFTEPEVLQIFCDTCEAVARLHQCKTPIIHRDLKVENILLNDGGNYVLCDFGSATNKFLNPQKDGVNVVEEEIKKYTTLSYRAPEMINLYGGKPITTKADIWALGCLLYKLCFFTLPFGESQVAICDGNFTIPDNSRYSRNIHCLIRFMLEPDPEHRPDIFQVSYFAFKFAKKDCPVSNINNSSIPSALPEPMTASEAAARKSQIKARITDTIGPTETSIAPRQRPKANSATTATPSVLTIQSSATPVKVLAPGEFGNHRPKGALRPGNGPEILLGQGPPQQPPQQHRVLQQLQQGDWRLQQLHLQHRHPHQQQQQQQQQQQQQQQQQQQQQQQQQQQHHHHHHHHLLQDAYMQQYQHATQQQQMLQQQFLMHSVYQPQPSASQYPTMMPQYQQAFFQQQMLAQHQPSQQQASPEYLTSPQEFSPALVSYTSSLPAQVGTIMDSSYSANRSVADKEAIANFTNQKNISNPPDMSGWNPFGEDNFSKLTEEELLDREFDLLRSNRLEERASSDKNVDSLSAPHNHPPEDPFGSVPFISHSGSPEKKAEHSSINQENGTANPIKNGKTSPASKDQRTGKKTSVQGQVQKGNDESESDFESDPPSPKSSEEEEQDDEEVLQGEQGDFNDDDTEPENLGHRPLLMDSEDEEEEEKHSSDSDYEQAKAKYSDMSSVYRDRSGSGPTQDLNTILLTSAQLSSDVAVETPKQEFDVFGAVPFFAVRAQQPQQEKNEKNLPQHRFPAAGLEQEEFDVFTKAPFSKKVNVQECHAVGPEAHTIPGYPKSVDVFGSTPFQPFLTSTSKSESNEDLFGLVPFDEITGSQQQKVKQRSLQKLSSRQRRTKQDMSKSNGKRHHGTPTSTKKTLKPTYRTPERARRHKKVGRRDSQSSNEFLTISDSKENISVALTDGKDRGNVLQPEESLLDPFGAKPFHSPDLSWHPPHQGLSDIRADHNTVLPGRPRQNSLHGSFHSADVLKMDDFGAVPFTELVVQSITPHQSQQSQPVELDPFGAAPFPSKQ
Sequence of NDR2 (Q9Y2H1 whole entry): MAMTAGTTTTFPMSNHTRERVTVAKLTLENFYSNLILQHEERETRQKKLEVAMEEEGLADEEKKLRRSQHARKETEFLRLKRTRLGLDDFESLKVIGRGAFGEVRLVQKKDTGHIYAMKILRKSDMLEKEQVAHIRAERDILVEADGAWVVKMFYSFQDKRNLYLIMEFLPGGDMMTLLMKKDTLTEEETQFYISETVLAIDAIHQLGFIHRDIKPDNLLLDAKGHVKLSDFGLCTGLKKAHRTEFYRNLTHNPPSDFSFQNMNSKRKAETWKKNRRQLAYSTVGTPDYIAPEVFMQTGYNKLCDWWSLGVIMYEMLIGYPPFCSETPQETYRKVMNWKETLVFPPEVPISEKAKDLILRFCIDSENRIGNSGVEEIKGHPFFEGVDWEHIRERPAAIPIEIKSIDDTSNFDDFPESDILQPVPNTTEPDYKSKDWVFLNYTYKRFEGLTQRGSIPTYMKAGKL
Sequence of LOK (O94804 whole entry): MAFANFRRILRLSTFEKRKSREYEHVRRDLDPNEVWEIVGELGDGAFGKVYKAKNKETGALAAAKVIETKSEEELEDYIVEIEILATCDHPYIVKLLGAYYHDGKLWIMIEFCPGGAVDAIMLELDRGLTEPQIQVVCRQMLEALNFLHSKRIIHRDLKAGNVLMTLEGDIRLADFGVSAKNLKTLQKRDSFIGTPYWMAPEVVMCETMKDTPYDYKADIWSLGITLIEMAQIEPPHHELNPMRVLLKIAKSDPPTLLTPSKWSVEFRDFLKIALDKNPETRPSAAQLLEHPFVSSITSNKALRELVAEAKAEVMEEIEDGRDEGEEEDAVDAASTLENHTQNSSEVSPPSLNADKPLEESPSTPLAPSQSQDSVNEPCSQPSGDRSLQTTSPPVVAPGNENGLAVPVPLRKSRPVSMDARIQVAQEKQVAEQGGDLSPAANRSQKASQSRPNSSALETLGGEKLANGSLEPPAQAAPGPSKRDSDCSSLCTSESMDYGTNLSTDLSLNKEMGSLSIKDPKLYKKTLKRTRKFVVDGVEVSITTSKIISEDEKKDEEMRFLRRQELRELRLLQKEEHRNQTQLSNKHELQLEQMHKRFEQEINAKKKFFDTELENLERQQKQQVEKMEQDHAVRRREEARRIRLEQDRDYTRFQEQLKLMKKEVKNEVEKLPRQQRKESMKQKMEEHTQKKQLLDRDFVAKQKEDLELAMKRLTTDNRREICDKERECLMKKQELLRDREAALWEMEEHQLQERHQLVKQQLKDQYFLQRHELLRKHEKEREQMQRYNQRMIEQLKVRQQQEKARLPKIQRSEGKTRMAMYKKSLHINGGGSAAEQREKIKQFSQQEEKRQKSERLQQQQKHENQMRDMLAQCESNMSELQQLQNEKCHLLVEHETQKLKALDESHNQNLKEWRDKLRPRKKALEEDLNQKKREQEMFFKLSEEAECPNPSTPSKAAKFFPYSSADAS
Sequence of JNK1 (P45983 whole entry): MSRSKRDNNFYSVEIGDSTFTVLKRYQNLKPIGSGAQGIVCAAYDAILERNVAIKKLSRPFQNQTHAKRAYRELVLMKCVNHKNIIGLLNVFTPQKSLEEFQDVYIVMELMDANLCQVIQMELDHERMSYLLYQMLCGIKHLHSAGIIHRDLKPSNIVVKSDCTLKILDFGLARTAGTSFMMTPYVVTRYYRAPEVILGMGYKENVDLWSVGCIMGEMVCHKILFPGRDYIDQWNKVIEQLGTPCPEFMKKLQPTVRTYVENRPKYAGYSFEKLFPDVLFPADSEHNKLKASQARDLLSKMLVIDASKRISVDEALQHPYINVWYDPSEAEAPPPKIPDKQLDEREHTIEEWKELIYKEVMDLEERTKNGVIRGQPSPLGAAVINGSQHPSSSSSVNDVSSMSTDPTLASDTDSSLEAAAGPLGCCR

On to `CNc1ncc2cc(-c3cc(C(F)(F)F)ccc3Cl)c(=O)n(CCCCN)c2n1` [compound 9, 8-(4-Aminobutyl)-6-(2-chloro-5-(trifluoromethyl)phenyl)-2-(methylamino)pyrido[2,3-d]pyrimidin-7(8H)-one], for which the ΔTm at 10 µM at NDR2 (read-out: dTm 9) was 0.1 °C; at BIKE (read-out: dTm 9), 0.6 °C; at JNK1 (read-out: dTm 9) it was 0.6 °C; at BRD4 (read-out: dTm 9), 0.7 °C; at LOK (read-out: dTm 9), 1.6 °C; on NEK1 (read-out: dTm 9), 0.1 °C. The ΔTm at 10 µM on MRCKa (read-out: dTm 9) was -0.5 °C; at MYT1 (read-out: dTm 9), -0.2 °C; at ULK3 (read-out: dTm 9) it was 0.6 °C; at CLK3 (read-out: dTm 9), 0.4 °C.

On to `CNc1ncc2cc(-c3cc(Cl)ccc3Cl)c(=O)n(CCCCN)c2n1` [compound 8, 8-(4-Aminobutyl)-6-(2,5-dichlorophenyl)-2-(methylamino)pyrido[2,3-d]pyrimidin-7(8H)-one], for which the ΔTm at 10 µM on NDR2 (read-out: dTm 8) came to 0.4 °C; at BIKE (read-out: dTm 8), 1.1 °C; at JNK1 (read-out: dTm 8), 1.4 °C; at BRD4 (read-out: dTm 8), 1.3 °C; on LOK (read-out: dTm 8), 2.5 °C; at NEK1 (read-out: dTm 8), 0.1 °C. For the same compound, the ΔTm at 10 µM on MRCKa (read-out: dTm 8) stood at 0 °C; at MYT1 (read-out: dTm 8), 0.3 °C; at ULK3 (read-out: dTm 8) it was 1 °C; at CLK3 (read-out: dTm 8) it was 0.4 °C.

For the compound `CNc1ncc2cc(-c3cc(Br)ccc3Br)c(=O)n(CCCCN)c2n1` [compound 11, 8-(4-Aminobutyl)-6-(2,5-dibromophenyl)-2-(methylamino)pyrido[2,3-d]pyrimidin-7(8H)-one], the ΔTm at 10 µM stood at 0.5 °C on NDR2 (read-out: dTm 11); 1 °C at BIKE (read-out: dTm 11); 0.9 °C at JNK1 (read-out: dTm 11); 1 °C at BRD4 (read-out: dTm 11); 3.6 °C on LOK (read-out: dTm 11); 0.1 °C at NEK1 (read-out: dTm 11). The ΔTm at 10 µM at MRCKa (read-out: dTm 11) was -0.2 °C; on MYT1 (read-out: dTm 11) it was -0.4 °C; on ULK3 (read-out: dTm 11), 1.3 °C; at CLK3 (read-out: dTm 11), 0.4 °C.

As to `CNc1ncc2cc(-c3cc(F)c(-c4cccc(C)n4)cc3F)c(=O)n(CCCCN)c2n1` [compound 12, 8-(4-Aminobutyl)-6-(2,5-difluoro-4-(6-methylpyridin-2-yl)phenyl)-2-(methylamino)pyrido[2,3-d]pyrimidin-7(8H)-one], the ΔTm at 10 µM on NDR2 (read-out: dTm 12) is 5.2 °C; at BIKE (read-out: dTm 12) it was 2.2 °C; on JNK1 (read-out: dTm 12), 0.7 °C; on BRD4 (read-out: dTm 12), -2 °C; at LOK (read-out: dTm 12), -0.4 °C; at NEK1 (read-out: dTm 12), -0.4 °C. The ΔTm at 10 µM at MRCKa (read-out: dTm 12) was -0.8 °C; on MYT1 (read-out: dTm 12) it was -1.8 °C; on ULK3 (read-out: dTm 12), 6.7 °C; on CLK3 (read-out: dTm 12), -0.3 °C.

For `CNc1ncc2cc(-c3cc(Cl)ccc3Br)c(=O)n(CCCCN)c2n1` [compound 10, 8-(4-Aminobutyl)-6-(2-bromo-5-chlorophenyl)-2-(methylamino)pyrido[2,3-d]pyrimidin-7(8H)-one], the ΔTm at 10 µM is 0.4 °C at NDR2 (read-out: dTm 10); 1.1 °C on BIKE (read-out: dTm 10); 0.8 °C at JNK1 (read-out: dTm 10); 1.2 °C on BRD4 (read-out: dTm 10); 3.5 °C on LOK (read-out: dTm 10); 0.1 °C at NEK1 (read-out: dTm 10). Moreover, the ΔTm at 10 µM was -0.2 °C on MRCKa (read-out: dTm 10), 0.6 °C on MYT1 (read-out: dTm 10), 1.1 °C at ULK3 (read-out: dTm 10) and 0.4 °C on CLK3 (read-out: dTm 10).
